Data set [1] deals with T1, 5-hydroxytryptamine receptor 2A (Homo sapiens, UniProt P28223). The data set can be described thus: Agonist activity at 5-HT2A receptor (unknown origin) expressed in HEK293 cells assessed as [3H]inositol phosphate accumulation after 2 hrs by scintillation counting. The format is cell-based.
For another data set, the target named is 5-HT2B receptor (Homo sapiens, UniProt P41595). Nature of the data set: Agonist activity at 5-HT2B receptor (unknown origin) expressed in HEK293 cells assessed as [3H]inositol phosphate accumulation at 10 uM after 2 hrs by scintillation counting relative to serotonin. The format is cell-based. The settings on record: HEK293 cells expressing 5-HT2B receptor.

Data set [2] deals with T2, 5-hydroxytryptamine receptor 2C (Homo sapiens) (UniProt P28335).
T2 sequence (whole entry): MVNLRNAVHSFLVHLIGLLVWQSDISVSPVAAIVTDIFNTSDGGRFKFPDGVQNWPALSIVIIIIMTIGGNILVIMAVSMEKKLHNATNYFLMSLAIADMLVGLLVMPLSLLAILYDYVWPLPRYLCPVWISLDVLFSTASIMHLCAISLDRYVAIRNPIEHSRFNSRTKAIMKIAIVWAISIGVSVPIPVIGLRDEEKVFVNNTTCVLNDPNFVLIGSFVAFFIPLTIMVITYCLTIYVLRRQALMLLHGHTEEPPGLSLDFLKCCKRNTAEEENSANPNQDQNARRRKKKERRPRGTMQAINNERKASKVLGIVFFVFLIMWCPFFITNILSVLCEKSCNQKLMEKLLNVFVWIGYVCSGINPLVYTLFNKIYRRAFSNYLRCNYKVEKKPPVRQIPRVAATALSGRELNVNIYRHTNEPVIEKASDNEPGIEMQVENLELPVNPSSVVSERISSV
Nature of the data set: Agonist activity at unedited 5-HT2C receptor (unknown origin) expressed in HEK293 cells assessed as [3H]inositol phosphate accumulation at 10 uM after 2 hrs by scintillation counting relative to serotonin. It counts as functional, cell-based.

Another data set deals with 5-HT2A receptor (Homo sapiens, UniProt P28223). Nature of the data set: Agonist activity at 5-HT2A receptor (unknown origin) expressed in HEK293 cells assessed as [3H]inositol phosphate accumulation at 10 uM after 2 hrs by scintillation counting relative to serotonin. It counts as cell-based. The settings on record: HEK293 cells expressing 5-HT2A receptor.
Data set [3] deals with T1, 5-hydroxytryptamine receptor 2A. Nature of the data set: Displacement of [125I]DOI from recombinant human 5-HT2A receptor expressed in HEK293 cell membranes after 1 hr by scintillation counting.
The target in data set [4] is T3, 5-hydroxytryptamine receptor 2B (Homo sapiens, UniProt P41595). The data set can be described thus: Displacement of [125I]DOI from recombinant human 5-HT2B receptor expressed in HEK293 cell membranes after 1 hr by scintillation counting. (In general: Loss of bound radioactivity is the signal in a displacement assay; it reports binding, not function.)
Data set [5] concerns the target T4, 5-hydroxytryptamine receptor 2C (Homo sapiens, UniProt P28335).
T4 sequence (P28335 whole entry): T2 sequence (whole entry)
Nature of the data set: Agonist activity at unedited 5-HT2C receptor (unknown origin) expressed in HEK293 cells assessed as [3H]inositol phosphate accumulation after 2 hrs by scintillation counting. The settings on record: read-out: pEC50 (converted). It counts as functional, cell-based.

Data set [6] addresses T3, 5-hydroxytryptamine receptor 2B. The data set can be described thus: Agonist activity at 5-HT2B receptor (unknown origin) expressed in HEK293 cells assessed as [3H]inositol phosphate accumulation after 2 hrs by scintillation counting. The format is cell-based.
The target of data set [7] is T4, 5-hydroxytryptamine receptor 2C. Nature of the data set: Displacement of [125I]DOI from recombinant human 5-HT2C receptor expressed in HEK293 cell membranes after 1 hr by scintillation counting.
Data set [8] relates to Rattus norvegicus. The data set can be described thus: Antiobesity activity in Sprague-Dawley rat assessed as reduction in food intake at 5 mg/kg, po administered via oral gavage 30 mins prior to food presentation measured 60 mins post drug administration. Details: scale not given: the % may be the effect or the level left. The format is functional.
Data set [9] relates to Rattus norvegicus. Nature of the data set: Antiobesity activity in Sprague-Dawley rat assessed as reduction in food intake at 10 mg/kg, po administered via oral gavage 30 mins prior to food presentation measured 60 mins post drug administration. Details: scale not given: the % may be the effect or the level left. It counts as functional.
The subject of data set [10] is Rattus norvegicus. Nature of the data set: Antiobesity activity in Sprague-Dawley rat assessed as reduction in food intake at 1 mg/kg, po administered via oral gavage 30 mins prior to food presentation measured 60 mins post drug administration. It counts as functional. Also noted: scale not given: the % may be the effect or the level left.
Data set [11] relates to Rattus norvegicus. Nature of the data set: Antiobesity activity in Sprague-Dawley rat assessed as reduction in food intake at 3 mg/kg, po administered via oral gavage 30 mins prior to food presentation measured 60 mins post drug administration. Also noted: scale not given: the % may be the effect or the level left. It counts as functional.

Chain of 5-HT2A receptor (P28223 whole entry): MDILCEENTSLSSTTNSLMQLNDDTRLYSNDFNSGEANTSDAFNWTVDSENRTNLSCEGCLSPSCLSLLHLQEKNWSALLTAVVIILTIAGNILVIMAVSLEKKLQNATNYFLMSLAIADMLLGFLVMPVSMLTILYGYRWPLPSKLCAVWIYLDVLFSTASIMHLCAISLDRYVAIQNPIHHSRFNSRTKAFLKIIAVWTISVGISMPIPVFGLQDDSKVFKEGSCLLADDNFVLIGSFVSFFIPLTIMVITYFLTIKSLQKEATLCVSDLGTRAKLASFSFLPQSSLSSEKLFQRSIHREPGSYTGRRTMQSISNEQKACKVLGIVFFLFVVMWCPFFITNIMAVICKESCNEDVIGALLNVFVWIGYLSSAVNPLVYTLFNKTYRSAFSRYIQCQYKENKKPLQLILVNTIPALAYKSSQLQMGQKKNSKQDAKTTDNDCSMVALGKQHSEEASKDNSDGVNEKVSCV
T1 sequence (P28223 whole entry): as above
Chain of 5-HT2B receptor (P41595 whole entry): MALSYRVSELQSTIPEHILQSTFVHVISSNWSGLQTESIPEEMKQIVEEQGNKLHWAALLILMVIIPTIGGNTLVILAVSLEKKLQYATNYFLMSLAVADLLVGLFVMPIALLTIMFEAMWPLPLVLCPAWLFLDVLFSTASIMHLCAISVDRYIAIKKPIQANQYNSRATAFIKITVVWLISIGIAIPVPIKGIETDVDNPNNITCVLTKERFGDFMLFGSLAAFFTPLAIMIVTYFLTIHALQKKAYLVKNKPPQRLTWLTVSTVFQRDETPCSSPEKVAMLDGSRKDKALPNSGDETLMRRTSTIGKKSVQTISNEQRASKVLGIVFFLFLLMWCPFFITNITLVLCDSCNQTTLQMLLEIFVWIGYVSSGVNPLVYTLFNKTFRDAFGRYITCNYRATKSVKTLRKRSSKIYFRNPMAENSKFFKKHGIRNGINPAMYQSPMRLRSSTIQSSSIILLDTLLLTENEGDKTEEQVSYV
T3 sequence (P41595 whole entry): as above

For orientation: Emax means the maximal effect, on the per cent scale that the assay sets. One may read the Ki as the dissociation constant of the complex between target and ligand, obtained from inhibition or displacement. Consider `c1cc(CC2CCC2)c2c(c1)N1CCNCC1CC2` (stereo not given), for which the EC50 in data set [1] was 2 µM; in data set [5] it was 0.00316 µM; in data set [6] it was 2 µM. In addition, the values for the maximum response (Emax) at 2 h, 10 µM on 5-HT2B receptor and on 5-HT2A receptor were 31% and 135%, respectively. The Emax in data set [2] turned out to be 106%. For the same compound, the Ki is 0.00794 µM in data set [3], 0.0631 µM in data set [4] and 0.000631 µM in data set [7]. The Activity worked out at 63% in the data set on Rattus norvegicus [8], 99% in the data set with Rattus norvegicus [9] and 27% with Rattus norvegicus [10].
As for `CCCc1cccc2c1CCC1CNCCN21` (stereo not given), the figures for the EC50 in data set [1], in data set [5] and in data set [6] were 0.501 µM, 0.0002 µM and 0.2 µM, respectively. Besides, the figures for the maximal response (Emax) at 2 h, 10 µM at 5-HT2B receptor and on 5-HT2A receptor were 80% and 104%, respectively. The Activity with Rattus norvegicus [11] turned out to be 99%; in the data set on Rattus norvegicus [10], 66%. In addition, the maximal effect (Emax) in data set [2] turned out to be 101%. In addition, the inhibitory constant (Ki) in [3] was 0.00631 µM; in [4], 0.0251 µM; in data set [7], 0.000398 µM.
With `Fc1ccc2c(c1Cc1ccccc1)CCC1CNCCN21` (stereo not given), the EC50 in [1] was 0.1 µM; in data set [5], 0.001 µM; in [6], 0.631 µM. Moreover, the maximum response (Emax) at 2 h, 10 µM at 5-HT2B receptor was found to be 32%; on 5-HT2A receptor, 114%. Besides, the maximal response (Emax) in data set [2] was 102%. The values for the inhibitory constant (Ki) in data set [3], in data set [4] and in [7] were 0.000631 µM, 0.0126 µM and 0.000398 µM, respectively.
Take `c1cc(Cc2ccc3c(c2)OCO3)c2c(c1)N1CCNCC1CC2` (stereo not given): the EC50 in data set [1] was 0.2 µM; in [5], 0.00631 µM; in [6], 3.98 µM. For the same compound, the maximal response (Emax) at 2 h, 10 µM was found to be 26% on 5-HT2B receptor and 64% at 5-HT2A receptor. The Emax in [2] is 100%. Besides, the Ki in data set [3] was 0.00158 µM; in data set [4], 0.126 µM; in [7], 0.000794 µM.
Turning to `c1ccc(Cc2cccc3c2CCC2CNCCN32)cc1` (stereo not given), the EC50 in data set [1] is 0.126 µM; in [5], 0.00158 µM; in [6], 2.51 µM. For the same compound, the Emax at 2 h, 10 µM on 5-HT2B receptor was found to be 20%; at 5-HT2A receptor, 85%. Moreover, the Emax in [2] amounted to 104%. In addition, the inhibition constant Ki in [3] was 0.00158 µM; in data set [4], 0.0398 µM; in data set [7], 0.000631 µM.

Source of the values: ChEMBL document CHEMBL3871286, “Tetrahydroquinoline-based tricyclic amines as potent and selective agonists of the 5-HT2C receptor” (Bioorg Med Chem Lett, 2016).
